Source: PMC3783901, “A spectrophotometric coupled enzyme assay to measure the activity of succinate dehydrogenase^” (Analytical Biochemistry, 2013)
Like-named read-outs stand apart in the source and are kept apart here. Blank lines part the entries; values can stand above or below the molecule they belong to.

Experiments:
[1] = target: T1, complex II (succinate:ubiquinone oxidoreductase, succinate dehydrogenase) in bovine heart submitochondrial particles (Bos taurus, UniProt P31039+P35720+Q3T189+Q95123); test: coupled FumC-MaeB assay of succinate oxidation in SMPs, NADPH absorbance; type: biochemical; details: 5 mM succinate, pH 7.4, 32 °C, 2 mM NADP+, 2 mM MgSO4
T1 construct: gene SDHA; native four-subunit complex in submitochondrial particles from bovine heart mitochondria, not isolated; dicarboxylate site in SDHA, ubiquinone site at SDHB/SDHC/SDHD
Description: coupled FumC-MaeB assay of succinate oxidation in SMPs, NADPH absorbance on complex II (succinate:ubiquinone oxidoreductase, succinate dehydrogenase) in bovine heart submitochondrial particles | atpenin A5, an inhibitor that binds in the complex II ubiquinone-binding site, has an IC50 | malonate, an inhibitor that binds in the complex II flavin site, has an IC50

[2] = target: FumC (fumarate hydratase) (Escherichia coli, UniProt P05042); details: pH 7.4, 32 °C, 10 mM Tris-SO4, 2 mM MgSO4, 1 mM K2SO4, 2 mM NADP+, 300 μg/ml MaeB; kcat apparently per tetramer
[3] = target: T1, complex II (succinate:ubiquinone oxidoreductase, succinate dehydrogenase) in bovine heart submitochondrial particles; test: coupled FumC-MaeB assay of succinate oxidation in SMPs, NADPH absorbance; type: biochemical; details: pH 7.4, 32 °C, 2 mM NADP+, 2 mM MgSO4, endogenous ubiquinone-10, turnover to O2, kcat uses a published complex II content
purified protein [4] = substrate: NC(=O)c1ccc[n+]([C@@H]2O[C@H](COP(=O)(O)OP(=O)(O)OC[C@H]3O[C@@H](n4cnc5c(N)ncnc54)[C@H](OP(=O)(O)O)[C@@H]3O)[C@@H](O)[C@H]2O)c1; test: purified protein; details: 40 mM malate, pH 7.4, 32 °C, 10 mM Tris-SO4, 2 mM MgSO4, 1 mM K2SO4
purified protein [5] = substrate: O=C(O)C[C@H](O)C(=O)O; test: purified protein; details: 4 mM NADP+, pH 7.4, 32 °C, 10 mM Tris-SO4, 2 mM MgSO4, 1 mM K2SO4, kcat apparently per octamer, malate stereo not given

T1 sequence (P31039 44-665): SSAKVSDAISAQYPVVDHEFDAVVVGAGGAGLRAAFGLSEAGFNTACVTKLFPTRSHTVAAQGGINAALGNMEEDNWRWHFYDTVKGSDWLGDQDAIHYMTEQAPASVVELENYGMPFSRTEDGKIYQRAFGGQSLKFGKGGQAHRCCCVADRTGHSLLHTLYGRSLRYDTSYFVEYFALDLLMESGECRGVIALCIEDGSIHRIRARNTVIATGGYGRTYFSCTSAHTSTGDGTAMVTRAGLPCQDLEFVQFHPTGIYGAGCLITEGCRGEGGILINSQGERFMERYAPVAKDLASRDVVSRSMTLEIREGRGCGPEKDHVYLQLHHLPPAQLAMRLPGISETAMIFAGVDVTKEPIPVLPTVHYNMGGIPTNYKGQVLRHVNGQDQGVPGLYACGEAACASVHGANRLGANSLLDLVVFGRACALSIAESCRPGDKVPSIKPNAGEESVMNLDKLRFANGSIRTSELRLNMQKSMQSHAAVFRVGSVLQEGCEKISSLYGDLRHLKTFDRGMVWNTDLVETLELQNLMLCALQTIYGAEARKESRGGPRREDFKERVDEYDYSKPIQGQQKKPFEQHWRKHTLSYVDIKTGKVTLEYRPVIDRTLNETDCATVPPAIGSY
T1 sequence (Q3T189 29-280): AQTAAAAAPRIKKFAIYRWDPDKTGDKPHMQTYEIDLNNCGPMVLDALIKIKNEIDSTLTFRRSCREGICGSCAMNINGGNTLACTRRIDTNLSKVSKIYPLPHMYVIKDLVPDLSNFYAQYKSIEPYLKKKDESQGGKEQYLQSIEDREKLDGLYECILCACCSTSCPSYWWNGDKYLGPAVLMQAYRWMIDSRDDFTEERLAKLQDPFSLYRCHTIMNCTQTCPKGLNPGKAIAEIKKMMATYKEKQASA
T1 sequence (P35720 30-169): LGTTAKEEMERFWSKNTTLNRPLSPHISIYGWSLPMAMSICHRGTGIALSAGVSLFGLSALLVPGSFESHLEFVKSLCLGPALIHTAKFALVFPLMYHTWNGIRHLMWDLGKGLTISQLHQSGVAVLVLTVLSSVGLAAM
T1 sequence (Q95123 56-158): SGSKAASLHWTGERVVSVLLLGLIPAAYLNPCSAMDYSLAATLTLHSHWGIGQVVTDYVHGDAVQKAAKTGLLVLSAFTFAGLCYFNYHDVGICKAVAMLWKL
FumC (fumarate hydratase), sequence (P05042 whole entry): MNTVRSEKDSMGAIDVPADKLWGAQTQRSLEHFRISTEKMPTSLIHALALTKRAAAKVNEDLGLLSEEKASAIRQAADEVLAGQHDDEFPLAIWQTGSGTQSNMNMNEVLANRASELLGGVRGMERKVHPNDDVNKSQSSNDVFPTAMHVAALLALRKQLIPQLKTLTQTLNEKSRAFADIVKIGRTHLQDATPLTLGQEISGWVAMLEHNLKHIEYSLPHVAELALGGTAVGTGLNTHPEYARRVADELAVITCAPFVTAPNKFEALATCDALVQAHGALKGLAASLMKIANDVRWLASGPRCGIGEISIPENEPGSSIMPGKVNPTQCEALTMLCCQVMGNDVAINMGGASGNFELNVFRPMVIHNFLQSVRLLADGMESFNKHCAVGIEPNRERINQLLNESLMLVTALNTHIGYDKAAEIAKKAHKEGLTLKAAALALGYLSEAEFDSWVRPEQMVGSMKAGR

Molecule: COc1[nH]c(=O)c(C(=O)[C@@H](C)C[C@H](C)[C@@H](Cl)CCl)c(O)c1OC [atpenin A5]
IC50 ([1]; ubiquinone-binding site, full respiratory chain turnover to O2): 0.0024 ± 0.0012 µM

Molecule: O=C(O)/C=C/C(=O)O [fumarate]
Km [2]: 64 ± 7.8 µM

B1: MaeB (oxaloacetate decarboxylating malic dehydrogenase) (Escherichia coli K-12) (protein)
chain: MDDQLKQSALDFHEFPVPGKIQVSPTKPLATQRDLALAYSPGVAAPCLEIEKDPLKAYKYTARGNLVAVISNGTAVLGLGNIGALAGKPVMEGKGVLFKKFAGIDVFDIEVDELDPDKFIEVVAALEPTFGGINLEDIKAPECFYIEQKLRERMNIPVFHDDQHGTAIISTAAILNGLRVVEKNISDVRMVVSGAGAAAIACMNLLVALGLQKHNIVVCDSKGVIYQGREPNMAETKAAYAVVDDGKRTLDDVIEGADIFLGCSGPKVLTQEMVKKMARAPMILALANPEPEILPPLAKEVRPDAIICTGRSDYPNQVNNVLCFPFIFRGALDVGATAINEEMKLAAVRAIAELAHAEQSEVVASAYGDQDLSFGPEYIIPKPFDPRLIVKIAPAVAKAAMESGVATRPIADFDVYIDKLTEFVYKTNLFMKPIFSQARKAPKRVVLPEGEEARVLHATQELVTLGLAKPILIGRPNVIEMRIQKLGLQIKAGVDFEIVNNESDPRFKEYWTEYFQIMKRRGVTQEQAQRALISNPTVIGAIMVQRGEADAMICGTVGDYHEHFSVVKNVFGYRDGVHTAGAMNALLLPSGNTFIADTYVNDEPDAEELAEITLMAAETVRRFGIEPRVALLSHSNFGSSDCPSSSKMRQALELVRERAPELMIDGEMHGDAALVEAIRNDRMPDSSLKGSANILVMPNMEAARISYNLLRVSSSEGVTVGPVLMGVAKPVHVLTPIASVRRIVNMVALAVVEAQTQPL
Km (purified protein [4]): 52 ± 2.6 µM
Km (purified protein [5]): 7300 ± 900 µM
kcat (purified protein [5]): 92 ± 0.93 s⁻¹

Results, then the molecule that gave them:

IC50 ([1]; flavin (succinate) site, read-out: IC50): 96 ± 1.3 µM
Molecule: O=C(O)CC(=O)O [malonate]

Km [3]: 410 ± 55 µM
Molecule: O=C(O)CCC(=O)O [succinate]
